In patent US20230113609A1, “SSTR5 ANTAGONISTS” (Kallyope, Inc., priority 2019, published 2023):

target: T1, human SSTR5 (Homo sapiens, UniProt P35346); assay: Inositol phosphate accumulation assay (IP1 HTRF, antagonist mode); assay type: cell-based; conditions: CHO-K1 cells co-expressing human SSTR5 with Gqi5, SST28 agonist at concentration generating 90% of full activation
T1 construct: expressed in transfected cells
Text: CHO-K1 cells stably co-expressing human SSTR5 with Gqi5 were developed using Jump-In technology from Thermo-Fisher. Gqi5 is the mouse G alpha q protein, that was modified to interact with Gi-coupled GPCRs as described previously (Coward, P.; Chan, S. D.; Wada, H. G.; Humphries, G. M.; Conklin, B. R. Chimeric G proteins Allow a High-Throughput Signaling Assay of Gi-Coupled Receptors. Anal Biochem. 1999, 270(2),242-248).
Co-expression of Gqi5 with SSTR5 allowed monitoring of SSTR5 activity by following IP1 accumulation. The assay was performed in a 384-well plate format using the IP1 assay kit from Cis-Bio in an antagonist mode, i.e., pre-incubation with antagonist following by receptor activation by agonist at a concentration generating 90% of full activation. Frozen cells expressing human SSTR5 were thawed, washed, and then plated in DMEM supplemented with 10% FBS and non-essential amino acids. 40 μL of 2.5×10^5 cells/mL were plated on a Poly D-Lysine coated 384-well white plate. The cells were then incubated for 16 hr. at 37° C/5% CO2. After 16 hour the medium was removed, and 10 μL of stimulation buffer was added to the cells. Test compounds were dissolved in DMSO at concentrations 2000-fold that of the final assay concentrations. 7.5 nLcompound solutions were transferred to the cell plates using a Labcyte Echo® acoustic liquid handler. The plates were then incubated for 15 minutes at 37° C/5%CO2. After the first incubation, 5 μL of 30 nM SST28 were added to the cells, and the cells were incubated for 90 minutes at 37° C/5%CO2. 5 μL of detection buffer (prepared as described in the IP-1 kit) was added to each well, and the plates were incubated at RT for 1 hour.
TR-FRET was measured using a ClarioSTAR plate reader, calculating the ratio between emissions at 665 nm and 620 nm (HTRF ratio). The HTRF ratio for positive (Max) and negative (Min) controls were used to normalize HTRF data and generate values for % inhibition. IC50 and maximal inhibition values were determined using a standard 4-parameter fit.

T1 sequence (P35346 whole entry): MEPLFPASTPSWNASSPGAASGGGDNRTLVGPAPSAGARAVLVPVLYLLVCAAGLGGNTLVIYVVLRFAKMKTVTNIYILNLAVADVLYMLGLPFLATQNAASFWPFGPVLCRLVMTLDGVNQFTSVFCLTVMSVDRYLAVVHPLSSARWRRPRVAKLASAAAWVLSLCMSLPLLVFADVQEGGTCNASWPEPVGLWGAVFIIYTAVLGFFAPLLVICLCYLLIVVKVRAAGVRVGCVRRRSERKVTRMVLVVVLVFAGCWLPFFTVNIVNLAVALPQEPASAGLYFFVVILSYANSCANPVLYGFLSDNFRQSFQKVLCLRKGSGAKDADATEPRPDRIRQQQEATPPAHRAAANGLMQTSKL

Structure (SMILES)	IC50 [nM]
CCOc1cc(C(=O)OC)c(C2CC2)cc1CN1CCC2(CC1)CC(=O)N(c1ccc(C(=O)NCCNC(=O)NC(CO)(CO)CO)cc1)C2 [Example 18, methyl 2-cyclopropyl-4-((2-(4-((2-(3-(1,3-dihydroxy-2-(hydroxymethyl)propan-2-yl)ureido)ethyl)carbamoyl)phenyl)-3-oxo-2,8-diazaspiro[4.5]decan-8-yl)methyl)-5-ethoxybenzoate]	100 to 1000
CCOc1cc(-c2nc(C)no2)c(C2CC2)cc1CN1CCC2(CC1)CN(c1ccc(C(=O)NCCCS(=O)(=O)O)cc1)C(=O)N2 [Example 68, 3-(4-(8-(5-cyclopropyl-2-ethoxy-4-(3-methyl-1,2,4-oxadiazol-5-yl)benzyl)-2-oxo-1,3,8-triazaspiro[4.5]decan-3-yl)benzamido)propane-1-sulfonic acid]	100 to 1000
CCOc1cc(C(=O)OC)c(C2CC2)cc1CN1CCC2(CC1)CN(c1ccc(C(=O)NC[C@H](O)[C@@H](O)[C@H](O)[C@H](O)CO)cc1)C(=O)O2 [Example 54, methyl 2-cyclopropyl-5-ethoxy-4-((2-oxo-3-(4-(((2S,3R,4R,5R)-2,3,4,5,6-pentahydroxyhexyl)carbamoyl)phenyl)-1-oxa-3,8-diazaspiro[4.5]decan-8-yl)methyl)benzoate]	≤ 100
CCOc1cc(C(=O)OC)c(C2CC2)cc1CN1CCN(C(=O)Oc2ccc(C(=O)N3CC(CNC[C@H](O)[C@@H](O)[C@H](O)[C@H](O)CO)C3)cc2)CC1 [Example 99, 4-(3-((((2S,3R,4R,5R)-2,3,4,5,6-pentahydroxyhexyl)amino)methyl)azetidine-1-carbonyl)phenyl 4-(5-cyclopropyl-2-ethoxy-4-(methoxycarbonyl)benzyl)piperazine-1-carboxylate]	100 to 1000
CCOc1cc(C(=O)OC)c(C2CC2)cc1CN1CCC2(CC1)CC(=O)N(c1ccc(C(=O)NCCN3CCNC3=O)cc1)C2 [Example 40, methyl 2-cyclopropyl-5-ethoxy-4-((3-oxo-2-(4-((2-(2-oxoimidazolidin-1-yl)ethyl)carbamoyl)phenyl)-2,8-diazaspiro[4.5]decan-8-yl)methyl)benzoate]	100 to 1000
CCOc1cc(C(=O)OC)c(C2CC2)cc1CN1CCC2(CC1)CC(=O)N(c1ccc(C(=O)NCCNC(=O)NC(CO)CO)cc1)C2 [Example 16, methyl 2-cyclopropyl-4-((2-(4-((2-(3-(1,3-dihydroxypropan-2-yl)ureido)ethyl)carbamoyl)phenyl)-3-oxo-2,8-diazaspiro[4.5]decan-8-yl)methyl)-5-ethoxybenzoate]	> 5000
CCOc1cc(S(C)(=O)=O)c(C2CC2)cc1CN1CCC2(CC1)CN(c1ccc(S(=O)(=O)N(Cc3ccc(OC)cc3)Cc3ccc(OC)cc3)cc1)C(=O)N2 [compound 86, 4-[8-[(5-cyclopropyl-2-ethoxy-4-methylsulfonyl-phenyl)methyl]-2-oxo-1,3,8-triazaspiro[4.5]decan-3-yl]-N,N-bis[(4-methoxyphenyl)methyl]benzenesulfonamide]	≤ 100
CCOc1cc(C(=O)OC)c(C2CC2)cc1CN1CCC2(CC1)CC(=O)N(c1ccc(C(=O)NCCC(O)CO)cc1)C2 (stereo not drawn) [Example 48, methyl 2-cyclopropyl-4-((2-(4-((3,4-dihydroxybutyl)carbamoyl)phenyl)-3-oxo-2,8-diazaspiro[4.5]decan-8-yl)methyl)-5-ethoxybenzoate]	100 to 1000
CCOc1cc(CN2CCC3(CC2)CN(c2ccc(C(=O)N[C@@H](CC(=O)O)C(=O)O)cc2)C(=O)O3)cc(OCC)c1-c1ccc(F)cc1 [Example 9, (4-(8-((2,6-diethoxy-4′-fluoro-[1,1′-biphenyl]-4-yl)methyl)-2-oxo-1-oxa-3,8-diazaspiro[4.5]decan-3-yl)benzoyl)-L-aspartic acid]	100 to 1000
CCOc1cc(CN2CCC3(CC2)CN(c2ccc(C(=O)NCCNC(=O)NC(CO)(CO)CO)cc2)C(=O)O3)cc(OCC)c1-c1ccc(F)cc1 [Example 7, 4-(8-((2,6-diethoxy-4′-fluoro-[1,1′-biphenyl]-4-yl)methyl)-2-oxo-1-oxa-3,8-diazaspiro[4.5]decan-3-yl)-N-(2-(3-(1,3-dihydroxy-2-(hydroxymethyl)propan-2-yl)ureido)ethyl)benzamide]	≤ 100
CCOc1cc(C(=O)OC)c(C2CC2)cc1CN1CCC2(CC1)CC(=O)N(c1ccc(C(=O)N(CCO)CCO)cc1)C2 [Example 34, methyl 4-((2-(4-(bis(2-hydroxyethyl)carbamoyl)phenyl)-3-oxo-2,8-diazaspiro[4.5]decan-8-yl)methyl)-2-cyclopropyl-5-ethoxybenzoate]	1000 to 5000
CCOc1cc(C(=O)OC)c(C2CC2)cc1CN1CCC2(CC1)CC(=O)N(c1ccc(C(=O)NCCC[N+](C)(C)C)cc1)C2 [Example 28, 3-(4-(8-(5-cyclopropyl-2-ethoxy-4-(methoxycarbonyl)benzyl)-3-oxo-2,8-diazaspiro[4.5]decan-2-yl)benzamido)-N,N,N-trimethylpropan-1-aminium]	> 5000
CCOc1cc(-c2ccc(F)cc2)c(C2CC2)cc1CN1CCC2(CC1)CN(c1ccc(C(=O)NCCOCCO)cc1)C(=O)O2 [Example 61, 4-(8-((2-cyclopropyl-5-ethoxy-4′-fluoro-[1,1′-biphenyl]-4-yl)methyl)-2-oxo-1-oxa-3,8-diazaspiro [4.5]decan-3-yl)-N-(2-(2-hydroxyethoxy)ethyl)benzamide]	≤ 100
CCOc1cc(-c2ccc(F)cc2F)c(C2CC2)cc1CN1CCC2(CC1)CN(c1ccc(C(=O)NCCOCCO)cc1)C(=O)N2 [Example 72, 4-(8-((2-cyclopropyl-5-ethoxy-2′,4′-difluoro-[1,1′-biphenyl]-4-yl)methyl)-2-oxo-1,3,8-triazaspiro[4.5]decan-3-yl)-N-(2-(2-hydroxyethoxy)ethyl)benzamide]	≤ 100
CCOc1cc(C(=O)OC)c(C2CC2)cc1CN1CCC2(CC1)CC(=O)N(c1ccc(C(=O)NCC[N+](C)(C)C)cc1)C2 [Example 22, 2-(4-(8-(5-cyclopropyl-2-ethoxy-4-(methoxycarbonyl)benzyl)-3-oxo-2,8-diazaspiro[4.5]decan-2-yl)benzamido)-N,N,N-trimethylethan-1-aminium]	1000 to 5000
CCOc1cc(C(=O)OC)c(C2CC2)cc1CN1CCC2(CC1)CC(=O)N(c1ccc(CCCC(=O)NC(C)(C)C(=O)NCCN(C)C)cc1)C2 [Example 17, methyl 2-cyclopropyl-4-((2-(4-(4-((1-((2-(dimethylamino)ethyl)amino)-2-methyl-1-oxopropan-2-yl)amino)-4-oxobutyl)phenyl)-3-oxo-2.8-diazaspiro[4.5]decan-8-yl)methyl)-5-ethoxybenzoate]	1000 to 5000
CCOc1cc(C(=O)OC)c(C2CC2)cc1CN1CCC2(CC1)CC(=O)N(c1ccc(C(=O)NCCOCCO)cc1)C2 [Example 26, methyl 2-cyclopropyl-5-ethoxy-4-((2-(4-((2-(2-hydroxyethoxy)ethyl)carbamoyl)phenyl)-3-oxo-2,8-diazaspiro[4.5]decan-8-yl)methyl)benzoate]	100 to 1000
CCOc1cc(-c2ccc(F)cc2)c(C2CC2)cc1CN1CCC2(CC1)CN(c1ccc(C(=O)NCCO)cc1)C(=O)N2 [Example 69, 4-(8-((2-cyclopropyl-5-ethoxy-4′-fluoro-[1,1′-biphenyl]-4-yl)methyl)-2-oxo-1,3,8-triazaspiro[4.5]decan-3-yl)-N-(2-hydroxyethyl)benzamide]	≤ 100
